The results in this text go back to patent US8604054B2, “Triglyceride-lowering agent and hyperinsulinism-ameliorating agent” (Kowa Co., Ltd., priority 2006, dated 2013).

The conditions of experiment [1]: fructose-loaded rats, oral once a day for 21 days, pitavastatin 10 mg/kg, amlodipine 15 mg/kg; for plasma triglyceride level compared with the control group (FIG. 1): Dunnett's test, combination p<0.01.
The conditions of experiment [2]: fructose-loaded rats, oral once a day for 21 days, pitavastatin 10 mg/kg, amlodipine 15 mg/kg; for plasma insulin level compared with the control group (FIG. 2): Dunnett's test, combination p<0.05.
[3] abbreviates: blood 22 hours after final administration.

On to `CCOC(=O)C1=C(COCCN)NC(C)=C(C(=O)OC)C1c1ccccc1Cl` (stereo not drawn) [amlodipine, amlodipine besylate], for which, in experiment [1], the “plasma triglyceride level compared with the control group (FIG. 1)” value is recorded as “almost equivalent to those of the control group”. The “plasma insulin level compared with the control group (FIG. 2)” value in experiment [2] is “not significantly changed as compared with the control group”.
Turning to `O=C([O-])C[C@H](O)C[C@H](O)/C=C/c1c(C2CC2)nc2ccccc2c1-c1ccc(F)cc1.O=C([O-])C[C@H](O)C[C@H](O)/C=C/c1c(C2CC2)nc2ccccc2c1-c1ccc(F)cc1.[Ca+2]` [pitavastatin, Pitavastatin calcium], the “plasma triglyceride level compared with the control group (FIG. 1)” value in experiment [1] was “almost equivalent to those of the control group”. In addition, the “relative plasma triglyceride level (based on the control group)” value in experiment [1] (setting [3]) came out at 0.966. Besides, in experiment [2], the “plasma insulin level compared with the control group (FIG. 2)” value is recorded as “not significantly changed as compared with the control group”. Besides, in experiment [2] (setting [3]), the “relative plasma insulin level (based on the control group)” value worked out at 0.971.
